Test results taken from patent publication US11173151B2, “Substituted triazole derivatives and uses thereof” (BAYER AKTIENGESELLSCHAFT, priority 2017, dated 2021).

Columns and labels:
human V1a receptor = target: T1, human V1a receptor (Homo sapiens, UniProt P37288); assay: Cellular in vitro assay for determining vasopressin receptor activity, V1a receptor cell line (CHO, aequorin luminescence); type: cell-based; details: for IC50: CHO cell line transfected with human V1a receptor, [Arg]-vasopressin at EC50 concentration, read-out: IC50 hV1a; for ratio IC50 hV2/hV1a: selectivity ratio IC50 hV2 / IC50 hV1a
T1 construct: expressed in transfected cells; host or cells: CHO K1 (ATCC), also stably transfected with a modified aequorin
Experimental: (§1) B-1. Cellular In Vitro Assay for Determining Vasopressin Receptor Activity
(§2) The identification of agonists and antagonists of the V1a and V2 vasopressin receptors from humans, rats and dogs as well as the quantification of the activity of the compounds of the invention is carried out using recombinant cell lines. These cell lines originally derive from a hamster's ovary epithelial cell (Chinese Hamster Ovary, CHO K1, ATCC: American Type Culture Collection, Manassas, Va. 20108, USA). The test cell lines constitutively express the human, rat or dog V1a or V2 receptors. In case of the Gαq-coupled V1a receptors, cells are also stably transfected with a modified form of the calcium-sensitive photoproteins aequorin (human and rat V1a) or obelin (dog V1a), which, after reconstitution with the cofactor coelenterazine, emit light when there are increases in free calcium concentrations [Rizzuto R, Simpson A W, Brini M, Pozzan T, Nature 358, 325-327 (1992); Illarionov B A, Bondar V S, Illarionova V A, Vysotski E S, Gene 153 (2), 273-274 (1995)]. The resulting vasopressin receptor cells react to stimulation of the recombinantly expressed V1a receptors by intracellular release of calcium ions, which can be quantified by the resulting photoprotein luminescence. The Gs-coupled V2 receptors are stably transfected into cell lines expressing the gene for firefly luciferase under control of a CRE-responsible promoter. Activation of V2 receptors induces the activation of the CRE-responsive promoter via cAMP increase, thereby inducing the expression of firefly luciferase. The light emitted by photoproteins of V1a cell lines as well as the light emitted by firefly luciferase of V2 cell lines corresponds to the activation or inhibition of the respective vasopressin receptor. The bioluminescence of the cell lines is detected using a suitable luminometer [Milligan G, Marshall F, Rees S, Trends in Pharmacological Sciences 17, 235-237 (1996)].
Vasopressin V1a Receptor Cell Lines:
On the day before the assay, the cells are plated out in culture medium (DMEM/F12, 2% FCS, 2 mM glutamine, 10 mM HEPES, 5 μg/ml coelenterazine) in 384-well microtiter plates and kept in a cell incubator (96% humidity, 5% v/v CO2, 37° C.). On the day of the assay, test compounds in various concentrations are placed for 10 minutes in the wells of the microtiter plate before the agonist [Arg]-vasopressin at EC50 concentration is added. The resulting light signal is measured immediately in a luminometer.
(§3) Table 1A below lists individual IC50 values for the compounds of the invention (including racemic mixtures as well as separated enantiomers) that were obtained from cell lines transfected with the human V1a or V2 receptor: […]

human V2 receptor = target: T2, human V2 receptor (Homo sapiens, UniProt P30518); assay: Cellular in vitro assay for determining vasopressin receptor activity, V2 receptor cell line (CHO, CRE-luciferase); type: cell-based; details: CHO cell line transfected with human V2 receptor; [Arg8]-vasopressin at EC50 concentration, 3 hours; read-out: IC50 hV2
T2 construct: expressed in transfected cells; host or cells: CHO K1 (ATCC) expressing firefly luciferase under a CRE-responsive promoter
Experimental: as §1, §2
Vasopressin V2 Receptor Cell Lines:
On the day before the assay, the cells are plated out in culture medium (DMEM/F12, 2% FCS, 2 mM glutamine, 10 mM HEPES) in 384-well microtiter plates and kept in a cell incubator (96% humidity, 5% v/v CO2, 37° C.). On the day of the assay, test compounds in various concentrations and the agonist [Arg^8]-vasopressin at EC50 concentration are added together to the wells, and plates are incubated for 3 hours in a cell incubator. Upon addition of the cell lysis reagent Triton™ and the substrate luciferin, luminescence of firefly luciferase is measured in a luminometer.
as §3

T1 sequence (P37288 whole entry): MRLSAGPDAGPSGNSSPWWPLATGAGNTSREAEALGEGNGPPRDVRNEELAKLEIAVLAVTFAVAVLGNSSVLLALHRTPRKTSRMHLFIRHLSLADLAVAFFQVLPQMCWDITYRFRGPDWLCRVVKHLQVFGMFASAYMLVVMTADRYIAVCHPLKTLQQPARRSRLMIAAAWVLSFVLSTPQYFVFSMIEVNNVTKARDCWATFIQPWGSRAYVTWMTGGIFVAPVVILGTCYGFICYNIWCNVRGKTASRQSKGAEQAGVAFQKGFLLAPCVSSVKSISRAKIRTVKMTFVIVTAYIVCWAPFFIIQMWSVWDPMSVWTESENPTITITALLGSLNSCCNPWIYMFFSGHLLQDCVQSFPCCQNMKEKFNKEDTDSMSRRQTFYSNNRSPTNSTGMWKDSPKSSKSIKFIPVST
T2 sequence (P30518 whole entry): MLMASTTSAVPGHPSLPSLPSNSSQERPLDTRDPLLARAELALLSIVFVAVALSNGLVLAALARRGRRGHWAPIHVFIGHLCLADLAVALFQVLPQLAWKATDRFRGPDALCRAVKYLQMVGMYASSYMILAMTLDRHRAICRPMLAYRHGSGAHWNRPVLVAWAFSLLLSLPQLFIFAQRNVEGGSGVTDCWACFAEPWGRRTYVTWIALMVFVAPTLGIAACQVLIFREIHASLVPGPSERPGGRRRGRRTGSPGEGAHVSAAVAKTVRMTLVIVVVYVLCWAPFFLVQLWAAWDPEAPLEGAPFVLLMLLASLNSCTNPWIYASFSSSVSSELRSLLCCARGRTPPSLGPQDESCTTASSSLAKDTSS

## CC1CC(C)CN(C(=O)c2ccccc2-n2cnc(Cn3nc(-c4ccc(Cl)cc4)n(C[C@H](O)C(F)(F)F)c3=O)n2)C1 (mixture of isomers) [Example 326, 5-(4-Chlorophenyl)-2-[(1-{2-[(3,5-dimethylpiperidin-1-yl)carbonyl]phenyl}-1H-1,2,4-triazol-3-yl)methyl]-4-[(2S)-3,3,3-trifluoro-2-hydroxypropyl]-2,4-dihydro-3H-1,2,4-triazol-3-one]
Human V1a receptor
  IC50: 8.3 nM
  ratio IC50 hV2/hV1a: 180.7
Human V2 receptor
  IC50: 1500 nM

## CC1CCC(C)N1C(=O)c1ccccc1-n1cnc(Cn2nc(-c3ccc(Cl)cc3)n(C[C@H](O)C(F)(F)F)c2=O)n1 (mixture of isomers) [Example 328, 5-(4-Chlorophenyl)-2-[(1-{2-[(2,5-dimethylpyrrolidin-1-yl)carbonyl]phenyl}-1H-1,2,4-triazol-3-yl)methyl]-4-[(2S)-3,3,3-trifluoro-2-hydroxypropyl]-2,4-dihydro-3H-1,2,4-triazol-3-one]
Human V1a receptor
  IC50: 7.95 nM
  ratio IC50 hV2/hV1a: 270.4
Human V2 receptor
  IC50: 2150 nM

## CC1CCCC(C)N1C(=O)c1ccccc1-n1cnc(Cn2nc(-c3ccc(Cl)cc3)n(C[C@H](O)C(F)(F)F)c2=O)n1 (mixture of isomers) [Example 337, 5-(4-Chlorophenyl)-2-[(1-{2-[(2,6-dimethylpiperidin-1-yl)carbonyl]phenyl}-1H-1,2,4-triazol-3-yl)methyl]-4-[(2S)-3,3,3-trifluoro-2-hydroxypropyl]-2,4-dihydro-3H-1,2,4-triazol-3-one]
Human V1a receptor
  IC50: 23.5 nM
  ratio IC50 hV2/hV1a: 46.2
Human V2 receptor
  IC50: 1080 nM

## CC(C)C(C)NC(=O)c1ccccc1-n1cnc(Cn2nc(-c3ccc(Cl)cc3)n(C[C@H](O)C(F)(F)F)c2=O)n1 (mixture of isomers) [Example 345, 2-[3-({3-(4-Chlorophenyl)-5-oxo-4-[(2S)-3,3,3-trifluoro-2-hydroxypropyl]-4,5-dihydro-1H-1,2,4-triazol-1-yl}methyl)-1H-1,2,4-triazol-1-yl]-N-[(2R)-3-methylbutan-2-yl]benzamide]
Human V1a receptor
  IC50: 3.2 nM
  ratio IC50 hV2/hV1a: 37.2
Human V2 receptor
  IC50: 119 nM

## CC1CCCN(C(=O)c2ccccc2-n2cnc(Cn3nc(-c4ccc(Cl)cc4)n(C[C@H](O)C(F)(F)F)c3=O)n2)C1 (mixture of isomers) [Example 351, 5-(4-Chlorophenyl)-2-{[1-(2-{[3-methylpiperidin-1-yl]carbonyl}phenyl)-1H-1,2,4-triazol-3-yl]methyl}-4-[(2S)-3,3,3-trifluoro-2-hydroxypropyl]-2,4-dihydro-3H-1,2,4-triazol-3-one]
Human V1a receptor
  IC50: 2.7 nM
  ratio IC50 hV2/hV1a: 351.9
Human V2 receptor
  IC50: 950 nM

## CC1CCCN1C(=O)c1ccccc1-n1cnc(Cn2nc(-c3ccc(Cl)cc3)n(C[C@H](O)C(F)(F)F)c2=O)n1 (mixture of isomers) [Example 355, 5-(4-Chlorophenyl)-2-{[1-(2-{[2-methylpyrrolidin-1-yl]carbonyl}phenyl)-1H-1,2,4-triazol-3-yl]methyl}-4-[(2S)-3,3,3-trifluoro-2-hydroxypropyl]-2,4-dihydro-3H-1,2,4-triazol-3-one]
Human V1a receptor
  IC50: 1.75 nM
  ratio IC50 hV2/hV1a: 362.9
Human V2 receptor
  IC50: 635 nM

## O=C(NC1CC1F)c1ccccc1-n1cnc(Cn2nc(-c3ccc(Cl)cc3)n(C[C@H](O)C(F)(F)F)c2=O)n1 (mixture of isomers) [Example 364, 2-[3-({3-(4-Chlorophenyl)-5-oxo-4-[(2S)-3,3,3-trifluoro-2-hydroxypropyl]-4,5-dihydro-1H-1,2,4-triazol-1-yl}methyl)-1H-1,2,4-triazol-1-yl]-N-(2-fluorocyclopropyl)benzamide]
Human V1a receptor
  IC50: 0.47 nM
  ratio IC50 hV2/hV1a: 329.8
Human V2 receptor
  IC50: 155 nM

## O=C(NCC(O)C(F)(F)F)c1cccc(Cl)c1-n1cnc(Cn2nc(-c3ccc(Cl)cc3)n(C[C@H](O)C(F)(F)F)c2=O)n1 (mixture of isomers) [Example 367, 3-Chloro-2-[3-({3-(4-chlorophenyl)-5-oxo-4-[(2S)-3,3,3-trifluoro-2-hydroxypropyl]-4,5-dihydro-1H-1,2,4-triazol-1-yl}methyl)-1H-1,2,4-triazol-1-yl]-N-[3,3,3-trifluoro-2-hydroxypropyl]benzamide]
Human V1a receptor
  IC50: 45 nM
  ratio IC50 hV2/hV1a: 5.8
Human V2 receptor
  IC50: 260 nM

## O=C(NCC(O)C(F)(F)F)c1cccc(Cl)c1-n1cnc(Cn2nc(-c3ccc(Cl)cc3)n(C[C@@H](O)C(F)(F)F)c2=O)n1 (mixture of isomers) [Example 368, 3-Chloro-2-[3-({3-(4-chlorophenyl)-5-oxo-4-[(2R)-3,3,3-trifluoro-2-hydroxypropyl]-4,5-dihydro-1H-1,2,4-triazol-1-yl}methyl)-1H-1,2,4-triazol-1-yl]-N-[3,3,3-trifluoro-2-hydroxypropyl]benzamide]
Human V1a receptor
  IC50: 350 nM
  ratio IC50 hV2/hV1a: 6.0
Human V2 receptor
  IC50: 2100 nM

## O=C(NC1CC1(F)F)c1cccc(Cl)c1-n1cnc(Cn2nc(-c3ccc(Cl)cc3)n(C[C@H](O)C(F)(F)F)c2=O)n1 (mixture of isomers) [Example 371, 3-Chloro-2-[3-({3-(4-chlorophenyl)-5-oxo-4-[(2S)-3,3,3-trifluoro-2-hydroxypropyl]-4,5-dihydro-1H-1,2,4-triazol-1-yl}methyl)-1H-1,2,4-triazol-1-yl]-N-[2,2-difluorocyclopropyl]benzamide]
Human V1a receptor
  IC50: 15 nM
  ratio IC50 hV2/hV1a: 47.3
Human V2 receptor
  IC50: 710 nM

## CC1CN(C(=O)c2cccc(Cl)c2-n2cnc(Cn3nc(-c4ccc(Cl)cc4)n(C[C@H](O)C(F)(F)F)c3=O)n2)CCO1 (mixture of isomers) [Example 377, 2-{[1-(2-Chloro-6-{[2-methylmorpholin-4-yl]carbonyl}phenyl)-1H-1,2,4-triazol-3-yl]methyl}-5-(4-chlorophenyl)-4-[(2S)-3,3,3-trifluoro-2-hydroxypropyl]-2,4-dihydro-3H-1,2,4-triazol-3-one]
Human V1a receptor
  IC50: 295 nM
  ratio IC50 hV2/hV1a: 29.2
Human V2 receptor
  IC50: 8600 nM

## NC(=O)C1CCCN1C(=O)c1cccc(Cl)c1-n1cnc(Cn2nc(-c3ccc(Cl)cc3)n(C[C@H](O)C(F)(F)F)c2=O)n1 (mixture of isomers) [Example 378, 1-{3-Chloro-2-[3-({3-(4-chlorophenyl)-5-oxo-4-[(2S)-3,3,3-trifluoro-2-hydroxypropyl]-4,5-dihydro-1H-1,2,4-triazol-1-yl}methyl)-1H-1,2,4-triazol-1-yl]benzoyl}-prolinamide]
Human V1a receptor
  IC50: 120 nM
  ratio IC50 hV2/hV1a: 17.1
Human V2 receptor
  IC50: 2050 nM

## O=C(c1cccc(Cl)c1-n1cnc(Cn2nc(-c3ccc(Cl)cc3)n(C[C@H](O)C(F)(F)F)c2=O)n1)N1CCC(O)(C(F)(F)F)C1 (mixture of isomers) [Example 379, 2-{[1-(2-Chloro-6-{[hydroxy-3-(trifluoromethyl)pyrrolidin-1-yl]carbonyl}phenyl)-1H-1,2,4-triazol-3-yl]methyl}-5-(4-chlorophenyl)-4-[(2S)-3,3,3-trifluoro-2-hydroxypropyl]-2,4-dihydro-3H-1,2,4-triazol-3-one]
Human V1a receptor
  IC50: 70.5 nM
Human V2 receptor
  IC50: 845 nM

## O=C(c1cccc(Cl)c1-n1cnc(Cn2nc(-c3ccc(Cl)cc3)n(C[C@H](O)C(F)(F)F)c2=O)n1)N1CCOC(C(F)(F)F)C1 (mixture of isomers) [Example 380, 5-(4-Chlorophenyl)-2-{[1-(2-chloro-6-{[2-(trifluoromethyl)morpholin-4-yl]carbonyl}phenyl)-1H-1,2,4-triazol-3-yl]methyl}-4-[(2S)-3,3,3-trifluoro-2-hydroxypropyl]-2,4-dihydro-3H-1,2,4-triazol-3-one]
Human V1a receptor
  IC50: 95.5 nM
  ratio IC50 hV2/hV1a: 41.9
Human V2 receptor
  IC50: 4000 nM
